Experimental data published in PubChem BioAssay (NCI).
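1) Cells in 96-well plates. 2) Compound, 48 h, 5 concentrations. 3) Linear interpolation between surrounding doses. 4) Unreached endpoint = highest concentration. GI50 is the concentration that inhibits growth by half. TGI: total growth inhibition.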

Legend:
Test in all cases: DTP human tumour cell line panel, 48 h
EKVX NSCLC = test system: EKVX NSCLC
IGROV1 ovarian = test system: IGROV1 ovarian
BT-549 breast = test system: BT-549 breast
RPMI-8226 leukemia = test system: RPMI-8226 leukemia
NCI-H522 lung = test system: NCI-H522 lung
MDA-MB-231 breast = test system: MDA-MB-231 breast
OVCAR-8 ovarian = test system: OVCAR-8 ovarian
A549 NSCLC = test system: A549 NSCLC
SF-539 CNS = test system: SF-539 CNS
K-562 leukemia = test system: K-562 leukemia
UO-31 renal = test system: UO-31 renal
ACHN renal = test system: ACHN renal
HCC-2998 colon = test system: HCC-2998 colon
LOX IMVI melanoma = test system: LOX IMVI melanoma
HS 578T breast = test system: HS 578T breast
OVCAR-3 ovarian = test system: OVCAR-3 ovarian
TK-10 renal = test system: TK-10 renal
SW-620 colon = test system: SW-620 colon
OVCAR-4 ovarian = test system: OVCAR-4 ovarian
CCRF-CEM leukemia = test system: CCRF-CEM leukemia
COLO 205 colon = test system: COLO 205 colon
HT29 colon = test system: HT29 colon
SK-OV-3 ovarian = test system: SK-OV-3 ovarian
SK-MEL-5 melanoma = test system: SK-MEL-5 melanoma
M14 melanoma = test system: M14 melanoma
786-0 renal = test system: 786-0 renal
MOLT-4 leukemia = test system: MOLT-4 leukemia
SF-295 CNS = test system: SF-295 CNS
SN12C renal = test system: SN12C renal
CAKI-1 renal = test system: CAKI-1 renal
SNB-19 CNS = test system: SNB-19 CNS
SNB-75 CNS = test system: SNB-75 CNS
NCI-H226 lung = test system: NCI-H226 lung
A498 renal = test system: A498 renal
DU-145 prostate = test system: DU-145 prostate
NCI-H23 lung = test system: NCI-H23 lung
MALME-3M melanoma = test system: MALME-3M melanoma
MCF7 breast = test system: MCF7 breast
U251 CNS = test system: U251 CNS
NCI/ADR-RES ovarian = test system: NCI/ADR-RES ovarian
UACC-257 melanoma = test system: UACC-257 melanoma
HL-60(TB) leukemia = test system: HL-60(TB) leukemia
PC-3 prostate = test system: PC-3 prostate
HOP-92 NSCLC = test system: HOP-92 NSCLC
RXF 393 renal = test system: RXF 393 renal
SR leukemia = test system: SR leukemia
NCI-H460 lung = test system: NCI-H460 lung
SK-MEL-28 melanoma = test system: SK-MEL-28 melanoma
HCT-15 colon = test system: HCT-15 colon
SK-MEL-2 melanoma = test system: SK-MEL-2 melanoma
HCT-116 colon = test system: HCT-116 colon
UACC-62 melanoma = test system: UACC-62 melanoma
OVCAR-5 ovarian = test system: OVCAR-5 ovarian
KM12 colon = test system: KM12 colon
MDA-MB-435 = test system: MDA-MB-435
HOP-62 NSCLC = test system: HOP-62 NSCLC
SF-268 CNS = test system: SF-268 CNS

CCCCCCCC(=O)OCC/C=C/C1OC1C1OC(=O)/C=C\C=C\C(=O)N(C(C)=O)C(=O)/C=C(/C)CCC2OC2C1OC(=O)NC(C)=O (centres undefined)
GI50 (EKVX NSCLC): > 25 µM | TGI (EKVX NSCLC): > 25 µM | GI50 (IGROV1 ovarian): 3.21 µM | TGI (IGROV1 ovarian): 8.28 µM | GI50 (BT-549 breast): 6.43 µM | TGI (BT-549 breast): > 25 µM | GI50 (RPMI-8226 leukemia): 0.959 µM | TGI (RPMI-8226 leukemia): 4.03 µM | GI50 (NCI-H522 lung): 3.78 µM | TGI (NCI-H522 lung): 8.16 µM | GI50 (MDA-MB-231 breast): 10.5 µM | TGI (MDA-MB-231 breast): > 25 µM | GI50 (OVCAR-8 ovarian): 3.64 µM | TGI (OVCAR-8 ovarian): 16.6 µM | GI50 (A549 NSCLC): 21.6 µM | TGI (A549 NSCLC): > 25 µM | GI50 (SF-539 CNS): 3.68 µM | TGI (SF-539 CNS): 7.36 µM | GI50 (K-562 leukemia): 4.78 µM | TGI (K-562 leukemia): > 25 µM | GI50 (UO-31 renal): 1.82 µM | TGI (UO-31 renal): 10.8 µM | GI50 (ACHN renal): 2.14 µM | TGI (ACHN renal): 9.94 µM | GI50 (HCC-2998 colon): 7.35 µM | TGI (HCC-2998 colon): 19.1 µM | GI50 (LOX IMVI melanoma): 2.93 µM | TGI (LOX IMVI melanoma): 6.74 µM | GI50 (HS 578T breast): 5.22 µM | TGI (HS 578T breast): 15.8 µM | GI50 (OVCAR-3 ovarian): 4.07 µM | TGI (OVCAR-3 ovarian): 8.4 µM | GI50 (TK-10 renal): 6.91 µM | TGI (TK-10 renal): 22.2 µM | GI50 (SW-620 colon): 6.42 µM | TGI (SW-620 colon): 24 µM | GI50 (OVCAR-4 ovarian): 7.37 µM | TGI (OVCAR-4 ovarian): > 25 µM | GI50 (CCRF-CEM leukemia): 0.734 µM | TGI (CCRF-CEM leukemia): > 25 µM | GI50 (COLO 205 colon): 3.27 µM | TGI (COLO 205 colon): 6.86 µM | GI50 (HT29 colon): 4.03 µM | TGI (HT29 colon): 14.4 µM | GI50 (SK-OV-3 ovarian): > 25 µM | TGI (SK-OV-3 ovarian): > 25 µM | GI50 (SK-MEL-5 melanoma): 7.03 µM | TGI (SK-MEL-5 melanoma): > 25 µM | GI50 (M14 melanoma): 6.83 µM | TGI (M14 melanoma): > 25 µM | GI50 (786-0 renal): 4.12 µM | TGI (786-0 renal): 11.1 µM | GI50 (MOLT-4 leukemia): 10.1 µM | TGI (MOLT-4 leukemia): > 25 µM | GI50 (SF-295 CNS): 2.16 µM | TGI (SF-295 CNS): 9.9 µM | GI50 (SN12C renal): 7.29 µM | TGI (SN12C renal): > 25 µM | GI50 (CAKI-1 renal): 15 µM | TGI (CAKI-1 renal): > 25 µM | GI50 (SNB-19 CNS): > 25 µM | TGI (SNB-19 CNS): > 25 µM | GI50 (SNB-75 CNS): 4.79 µM | TGI (SNB-75 CNS): 17.9 µM | GI50 (NCI-H226 lung): 18.9 µM | TGI (NCI-H226 lung): > 25 µM | GI50 (A498 renal): 22.6 µM | TGI (A498 renal): > 25 µM | GI50 (DU-145 prostate): 4.45 µM | TGI (DU-145 prostate): 16.2 µM | GI50 (NCI-H23 lung): 5.07 µM | TGI (NCI-H23 lung): 12.8 µM | GI50 (MALME-3M melanoma): > 25 µM | TGI (MALME-3M melanoma): > 25 µM | GI50 (MCF7 breast): 1.7 µM | TGI (MCF7 breast): 11.5 µM | GI50 (U251 CNS): 5.54 µM | TGI (U251 CNS): 15 µM | GI50 (NCI/ADR-RES ovarian): > 25 µM | TGI (NCI/ADR-RES ovarian): > 25 µM | GI50 (UACC-257 melanoma): 9.38 µM | TGI (UACC-257 melanoma): > 25 µM | GI50 (HL-60(TB) leukemia): 8.18 µM | TGI (HL-60(TB) leukemia): > 25 µM | GI50 (PC-3 prostate): 3.15 µM | TGI (PC-3 prostate): 8.04 µM | GI50 (HOP-92 NSCLC): 0.823 µM | TGI (HOP-92 NSCLC): 7.38 µM | GI50 (RXF 393 renal): 4.34 µM | TGI (RXF 393 renal): 9.45 µM | GI50 (SR leukemia): 4.48 µM | TGI (SR leukemia): > 25 µM | GI50 (NCI-H460 lung): 11.4 µM | TGI (NCI-H460 lung): > 25 µM | GI50 (SK-MEL-28 melanoma): 5.12 µM | TGI (SK-MEL-28 melanoma): 14.3 µM | GI50 (HCT-15 colon): 5.13 µM | TGI (HCT-15 colon): 18.4 µM | GI50 (SK-MEL-2 melanoma): 6.46 µM | TGI (SK-MEL-2 melanoma): 20.4 µM | GI50 (HCT-116 colon): 1.8 µM | TGI (HCT-116 colon): 4.97 µM | GI50 (UACC-62 melanoma): 6.27 µM | TGI (UACC-62 melanoma): > 25 µM | GI50 (OVCAR-5 ovarian): 4.88 µM | TGI (OVCAR-5 ovarian): 11.5 µM | GI50 (KM12 colon): 3.88 µM | TGI (KM12 colon): 11.7 µM | GI50 (MDA-MB-435): 5.85 µM | TGI (MDA-MB-435): 24.8 µM | GI50 (HOP-62 NSCLC): 7.45 µM | TGI (HOP-62 NSCLC): > 25 µM | GI50 (SF-268 CNS): 4.6 µM | TGI (SF-268 CNS): 12.1 µM
